A value given as a limit tells only on which side of the number the result lay.

The experiment deals with T1, Aldo-keto reductase family 1 member A1 (Rattus norvegicus, UniProt P51635).
T1 sequence (P51635 whole entry): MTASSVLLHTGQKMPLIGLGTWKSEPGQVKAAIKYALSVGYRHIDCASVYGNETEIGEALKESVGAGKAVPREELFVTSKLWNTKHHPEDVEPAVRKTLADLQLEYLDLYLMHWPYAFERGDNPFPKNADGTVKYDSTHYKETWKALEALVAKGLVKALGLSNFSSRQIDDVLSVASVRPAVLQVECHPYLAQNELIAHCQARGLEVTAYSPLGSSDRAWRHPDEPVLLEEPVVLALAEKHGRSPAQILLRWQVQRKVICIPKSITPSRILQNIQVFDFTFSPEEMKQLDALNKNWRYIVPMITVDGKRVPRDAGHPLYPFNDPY
The experiment in a line: In vitro inhibitory activity against rat kidney aldehyde reductase(ALR).

The compound `O=C(O)Cn1cc(O)n(Cc2cccc([N+](=O)[O-])c2)c1=O` [[3-(3-Nitro-benzyl)-2,4-dioxo-imidazolidin-1-yl]-acetic acid] showed an IC50 greater than 100 µM. Consider `O=C(O)Cn1c(O)c(O)n(Cc2cccc([N+](=O)[O-])c2)c1=O`, for which the 50% inhibitory concentration (IC50) was greater than 100 µM. In turn, `O=C(O)Cn1c(O)cn(Cc2cccc([N+](=O)[O-])c2)c1=O` [[3-(3-Nitro-benzyl)-2,5-dioxo-imidazolidin-1-yl]-acetic acid] displayed an IC50 greater than 100 µM.

Turning to `O=C(O)Cn1c(=O)cc(O)n(Cc2cccc([N+](=O)[O-])c2)c1=O` [[3-(3-Nitro-benzyl)-2,4,6-trioxo-tetrahydro-pyrimidin-1-yl]-acetic acid], the IC50 was greater than 100 µM.

The values are drawn from BindingDB's records for doi:10.1021/jm960594+ (Nippon Zoki Pharmaceutical, 1997).
